A word on the Emax: it is the size of the effect at its maximum, as opposed to the concentration needed.

The values below come from patent US10123994B2, “Heterocyclic derivative having AMPK-activating activity” (SHIONOGI & CO., LTD., priority 2014, dated 2018).

In the assay the target is T1, Human AMPK α2β2γ1 (Homo sapiens, UniProt O43741+P54619+P54646).
T1 construct: The full length cDNAs of human AMPK β2 (NM_005399.3) and human AMPK α2 (NM_006252.3); The full length cDNAs of human AMPK β2 (NM_005399.3); the full length cDNA of human AMPK γ1 (NM_002733.3); 6xHis (N); made in house; host or cells: Escherichia coli BL21 CodonPlus (DE3)-RIL (AMPK); BL21 Star (DE3) (CaMKK2)
In words: Test Example 2: AMPK activator evaluation, mobility-shift kinase assay after CaMKK2 phosphorylation. The settings on record: for EC150: compound concentration showing 150% relative to the control (100%); for Emax: maximum rate of increase in activity within the measurement range, control = 100%. It counts as biochemical. The method, then: The full length cDNAs of human AMPK β2 (NM_005399.3) and human AMPK α2 (NM_006252.3) were inserted into the MCS1 and MCS2 of the pETDuet-1 vector to prepare a human AMPK β2 and human AMPK α2 (6× His tag at the 5′ terminus) expressing plasmid. The plasmid was cotransfected with an expression plasmid, in which the full length cDNA of human AMPK γ1 (NM_002733.3) had been inserted into pET28b(+), into BL21 CodonPlus (DE3)-RIL to obtain an expression strain. The expression strain was cultured in TB medium, followed by induction with 0.5 mM IPTG, and cultured at 25° C. for 3 hours and then harvested. After ultrasonication, supernatant was collected and applied to Histrap FF column (GE) and RESOUECE Q column (GE) to prepare 12.5 mg of purified sample containing three types of subunit from 1.8 L of broth.
An expression vector, in which the full length cDNA of human CAMKK β (NM_172226.1) had been inserted into pGEX-6P-3, was transfected into BL21 Star (DE3). The expression strain was cultured in TB medium, followed by induction with 0.5 mM IPTG, and cultured at 25° C. for 3 hours and then harvested. After ultrasonication, supernatant was collected and applied to GSTrap FF column (GE) to prepare 14 mg of GST-fused CAMKK β from 720 ml of broth.
Thus, phosphorylation treatment was carried out as pretreatment.
Human AMPK α2β2γ1 in an amount to give a conversion rate of approximately 10% by reaction for 2 hours, and CaMKK2 in an amount capable of sufficiently imparting activity to AMPK for one hour were mixed in a buffer solution consisting of a 50 mM HEPES-NaOH buffer solution (pH 7.0), 100 mM NaCl, 5 mM magnesium chloride, 0.1% bovine serum albumin, 0.2 mM sodium orthovanadate(V), 1 mM ethylene glycol-bis(2-aminoethyl ether)-N,N,N′,N′-tetraacetic acid (EGTA), 5 mM disodium β-glycerophosphate, 1 mM dithiothreitol and 0.2 mM ATP, and the obtained liquid was left to stand at 25° C. for 1 to 1.5 hours to sufficiently phosphorylate AMPK.
After that, to the enzyme liquid, which had been subjected to phosphorylation treatment, a compound dissolved in DMSO was added so as to have a 1% DMSO concentration. The obtained liquid was left to stand for 10 minutes.
To the liquid, a substrate solution consisting of a 50 mM HEPES-NaOH buffer solution (pH 7.0), 100 mM NaCl, 10 mM magnesium chloride, 0.1% bovine serum albumin, 0.2 mM sodium orthovanadate(V), 1 mM ethylene glycol-bis(2-aminoethyl ether)-N,N,N′,N′-tetraacetic acid (EGTA), 5 mM disodium β-glycerophosphate, 2 mM dithiothreitol, 0.4 mM ATP and 3 μM FL-Peptide 7 (manufactured by Caliper Life Sciences, Inc.) was added in equal amount (10 μl in total). The obtained liquid was allowed to react at 25° C. for 2 hours, and 10 μl of 20 mM EDTA was then added thereto to stop the reaction.
To detect phosphorylated fluorescent substrates, the reaction liquid was applied to a measuring device, LabChip EZ Reader II manufactured by Caliper Life Science, Inc., for detecting fluorescence by using differences in mobility due to differences in charge. The setting conditions for the device were pressure, −1.5 PSI; upstream voltage, −2250 V; downstream voltage, −400 V; post sample buffer sip time, 40 seconds; final delay, 120 seconds; and peak order, Product First.
A conversion rate was calculated from the peak heights of the resulting substrate and product. The conversion rate when not containing a compound was used as a control, and a concentration dependent curve was made by plotting the rate of increase in activity to the control at each concentration of a compound.

T1 sequence (P54646 whole entry): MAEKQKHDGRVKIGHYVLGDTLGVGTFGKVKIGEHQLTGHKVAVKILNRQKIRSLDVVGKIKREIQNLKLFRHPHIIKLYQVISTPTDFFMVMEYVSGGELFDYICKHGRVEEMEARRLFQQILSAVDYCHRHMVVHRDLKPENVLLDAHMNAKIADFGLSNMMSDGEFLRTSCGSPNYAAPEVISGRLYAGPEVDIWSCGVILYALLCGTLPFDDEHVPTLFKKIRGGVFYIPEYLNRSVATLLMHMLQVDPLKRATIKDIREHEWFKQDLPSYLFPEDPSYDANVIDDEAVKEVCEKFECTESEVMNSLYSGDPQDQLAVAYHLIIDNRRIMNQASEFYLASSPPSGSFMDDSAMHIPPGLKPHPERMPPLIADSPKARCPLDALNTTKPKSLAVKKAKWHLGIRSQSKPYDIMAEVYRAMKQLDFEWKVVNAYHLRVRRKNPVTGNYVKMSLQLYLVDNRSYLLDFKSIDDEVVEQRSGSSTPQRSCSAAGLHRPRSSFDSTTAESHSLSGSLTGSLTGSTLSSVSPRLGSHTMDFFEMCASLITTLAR
T1 sequence (O43741 whole entry): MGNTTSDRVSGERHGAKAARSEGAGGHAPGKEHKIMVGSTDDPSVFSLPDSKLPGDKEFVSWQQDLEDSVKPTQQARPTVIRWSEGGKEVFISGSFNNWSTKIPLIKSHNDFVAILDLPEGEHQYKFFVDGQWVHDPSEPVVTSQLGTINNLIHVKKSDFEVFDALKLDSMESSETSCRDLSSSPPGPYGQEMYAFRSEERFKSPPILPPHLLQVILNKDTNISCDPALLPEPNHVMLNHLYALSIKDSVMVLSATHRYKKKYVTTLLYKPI
T1 sequence (P54619 whole entry): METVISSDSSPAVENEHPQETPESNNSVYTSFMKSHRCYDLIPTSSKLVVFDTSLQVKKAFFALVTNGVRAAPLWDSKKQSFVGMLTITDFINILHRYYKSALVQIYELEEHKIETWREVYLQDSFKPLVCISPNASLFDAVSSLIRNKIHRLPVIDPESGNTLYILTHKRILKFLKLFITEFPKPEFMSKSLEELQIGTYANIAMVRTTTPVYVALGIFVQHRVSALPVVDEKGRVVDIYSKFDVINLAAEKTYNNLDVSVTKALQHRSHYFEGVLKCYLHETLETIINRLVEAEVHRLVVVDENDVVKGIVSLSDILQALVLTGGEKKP

For `O[C@@H]1CO[C@H]2[C@@H]1OC[C@H]2Oc1nc2nc(NCc3c(F)cccc3F)c(Cl)cc2[nH]1` [Compound I-1-1], the EC150 was 29 nM and the Emax was determined as 484%.

For `COCCOc1cc(F)c(CSc2nc3nc(O[C@@H]4CO[C@H]5[C@@H]4OC[C@H]5O)[nH]c3cc2Cl)c(F)c1` [Compound I-1-4], the EC150 turned out to be 40 nM and the Emax came to 766%.

For the molecule `Cc1cccc(F)c1CNc1nc2nc(O[C@@H]3CO[C@H]4[C@@H]3OC[C@H]4O)[nH]c2cc1Cl` [Compound I-1-6], the EC150 is 21 nM and the Emax was determined as 496%.

As for `O[C@@H]1CO[C@H]2[C@@H]1OC[C@H]2Oc1nc2nc(NC3CCc4ccccc43)c(Cl)cc2[nH]1` (stereo partly shown) [Compound I-1-8], the EC150 worked out at 67 nM and the Emax was 617%.

As for `O[C@@H]1CO[C@H]2[C@@H]1OC[C@H]2Oc1nc2nc(NCc3c(F)cccc3F)c(F)cc2[nH]1` [Compound I-1-10], the EC150 is on record as 740 nM and the Emax turned out to be 406%.

Regarding `O[C@@H]1CO[C@H]2[C@@H]1OC[C@H]2Oc1nc2nc(NC3COc4ccccc43)c(Cl)cc2[nH]1` (stereo partly shown) [Compound I-1-11], the EC150 was determined as 170 nM and the Emax stood at 512%.

On to `COCCOc1cc(F)c(CNc2nc3nc(O[C@@H]4CO[C@H]5[C@@H]4OC[C@H]5O)[nH]c3cc2Cl)c(F)c1` [Compound I-1-13], for which the EC150 is 17 nM and the Emax stood at 838%.

As to `O[C@@H]1CO[C@H]2[C@@H]1OC[C@H]2Oc1nc2nc(NCc3c(F)cc(Cl)cc3F)c(Cl)cc2[nH]1` [Compound I-1-14], the EC150 is given as 42 nM and the Emax was 750%.

`OCCOc1cc(F)c(CNc2nc3nc(O[C@@H]4CO[C@H]5[C@@H]4OC[C@H]5O)[nH]c3cc2Cl)c(F)c1` [Compound I-1-15]: the EC150 came to 5.8 nM and the maximal response (Emax) was determined as 894%.

Turning to `OCCCOc1cc(F)c(CNc2nc3nc(O[C@@H]4CO[C@H]5[C@@H]4OC[C@H]5O)[nH]c3cc2Cl)c(F)c1` [Compound I-1-36], the EC150 is recorded as 16 nM and the Emax came out at 475%.

`COCCOc1cc(F)c2c(c1)CCC2Nc1nc2nc(O[C@@H]3CO[C@H]4[C@@H]3OC[C@H]4O)[nH]c2cc1Cl` (stereo partly shown) [Compound I-1-38]: the EC150 was determined as 1.2 nM and the Emax was found to be 568%.

As for `Cn1cc(-c2cc(F)c(CNc3nc4nc(O[C@@H]5CO[C@H]6[C@@H]5OC[C@H]6O)[nH]c4cc3Cl)c(F)c2)cn1` [Compound I-1-39], the EC150 is 26 nM and the Emax stood at 506%.

As for `O[C@@H]1CO[C@H]2[C@@H]1OC[C@H]2Oc1nc2nc(NCc3cccs3)c(Cl)cc2[nH]1` [Compound I-1-52], the EC150 came to 100 nM and the Emax worked out at 407%.

`O=C(Nc1nc2nc(O[C@@H]3CO[C@H]4[C@@H]3OC[C@H]4O)[nH]c2cc1Cl)c1ccc2ccccc2c1` [Compound I-1-80]: the EC150 stood at 880 nM and the Emax was found to be 397%.

Take `O[C@@H]1CO[C@H]2[C@@H]1OC[C@H]2Oc1nc2nc(NCc3ccccc3F)c(Cl)cc2[nH]1` [Compound I-1-109]: the EC150 came out at 48 nM and the Emax was found to be 499%.

Regarding `O[C@@H]1CO[C@H]2[C@@H]1OC[C@H]2Oc1nc2nc(NC3CCc4cccnc43)c(Cl)cc2[nH]1` (stereo partly shown) [Compound I-1-116], the EC150 was found to be 94 nM and the Emax was 450%.

For `OCCO[C@@H]1CO[C@H]2[C@@H]1OC[C@H]2Oc1nc2nc(NCc3c(F)cccc3F)c(Cl)cc2[nH]1` [Compound I-1-119], the EC150 is given as 84 nM and the Emax amounted to 432%.

Regarding `CC(=O)NC(C)(C)c1ccc(Oc2nc3nc(NCc4c(F)cccc4F)c(Cl)cc3[nH]2)cn1` [Compound I-1-126], the EC150 is on record as 170 nM and the Emax amounted to 332%.

For `Oc1cccc(F)c1CNc1nc2nc(O[C@@H]3CO[C@H]4[C@@H]3OC[C@H]4O)[nH]c2cc1Cl` [Compound I-2-1], the EC150 is recorded as 30 nM and the Emax worked out at 588%.

For the molecule `OC[C@@H]1C[C@H](Oc2nc3nc(NCc4c(F)cccc4F)c(Cl)cc3[nH]2)CO1` [Compound I-2-19], the EC150 worked out at 74 nM and the Emax turned out to be 506%.

In the case of `O[C@@H]1CO[C@H]2[C@@H]1OC[C@H]2Oc1nc2nc(NCc3c(F)cccc3F)c(C(F)(F)F)cc2[nH]1` [Compound I-2-22], the EC150 amounted to 130 nM and the Emax stood at 480%.

On to `OCCn1ccc(CNc2nc3nc(O[C@@H]4CO[C@H]5[C@@H]4OC[C@H]5O)[nH]c3cc2Cl)n1` [Compound I-2-62], for which the EC150 was 94 nM and the Emax is 388%.

As to `CCc1ccc(CNc2nc3nc(O[C@@H]4CO[C@H]5[C@@H]4OC[C@H]5O)[nH]c3cc2Cl)s1` [Compound I-2-75], the EC150 is 26 nM and the Emax amounted to 542%.

Turning to `CS(=O)(=O)CCCOc1cc(F)c(CNc2nc3nc(O[C@@H]4CO[C@H]5[C@@H]4OC[C@H]5O)[nH]c3cc2Cl)c(F)c1` [Compound I-2-91], the EC150 is on record as 5.4 nM and the Emax worked out at 532%.

Take `CS(=O)(=O)NCCOc1cc(F)c(CNc2nc3nc(O[C@@H]4CO[C@H]5[C@@H]4OC[C@H]5O)[nH]c3cc2Cl)c(F)c1` [Compound I-2-93]: the EC150 came to 9.9 nM and the Emax was 602%.

Take `O[C@@H]1CO[C@H]2[C@@H]1OC[C@H]2Oc1nc2nc(NCc3c(F)cc(OCC4CNCCO4)cc3F)c(Cl)cc2[nH]1` (stereo partly shown) [Compound I-2-119]: the EC150 is given as 13 nM and the Emax was 581%.

As for `O=C(c1cc(F)c2c(c1)CCC2Nc1nc2nc(O[C@@H]3CO[C@H]4[C@@H]3OC[C@H]4O)[nH]c2cc1Cl)N1CCCCC1` (stereo partly shown) [Compound I-2-147], the EC150 was 4.5 nM and the Emax worked out at 532%.

`O=C(c1cc(F)c2c(c1)CCC2Nc1nc2nc(O[C@@H]3CO[C@H]4[C@@H]3OC[C@H]4O)[nH]c2cc1Cl)N1CC[C@H](F)C1` (stereo partly shown) [Compound I-2-153]: the EC150 was found to be 5.2 nM and the Emax came out at 546%.

Take `COCCOc1cc(F)c2c(c1)OCC2Nc1nc2nc(O[C@@H]3CO[C@H]4[C@@H]3OC[C@H]4O)[nH]c2cc1Cl` (stereo partly shown) [Compound I-2-185]: the EC150 is recorded as 6 nM and the Emax turned out to be 569%.

For the molecule `O=C1CCCN1CCOc1cc(F)c(CNc2nc3nc(O[C@@H]4CO[C@H]5[C@@H]4OC[C@H]5O)[nH]c3cc2Cl)c(F)c1` [Compound I-2-188], the EC150 came out at 15 nM and the Emax came to 603%.

Take `CN1CCC(Oc2cc(F)c(CNc3nc4nc(O[C@@H]5CO[C@H]6[C@@H]5OC[C@H]6O)[nH]c4cc3Cl)c(F)c2)CC1` [Compound I-2-192]: the EC150 stood at 7.6 nM and the Emax turned out to be 568%.

As for `O[C@@H]1CO[C@H]2[C@@H]1OC[C@H]2Oc1nc2nc(NCc3c(F)cc(C4=CCNCC4)cc3F)c(Cl)cc2[nH]1` [Compound I-2-209], the EC150 was 22 nM and the Emax is 558%.
